For data set [1] the following is noted: mouse, in vivo, ip, 5 mg/kg.
Experimental: Intra-peritoneal (ip), and intra-venous (iv) routes of administration were performed on 6-7 wk old female CD-1 mice (Harlan Laboratories). Animals received a single, 5 mg/kg dose in groups of three mice/compound/route of administration. […] Blood (80 ul) was collected from the saphenous vein at intervals post-dosing (20 min, 1 h, 3 h, 8 h, 24 h) in EDTA containing collection tubes (Sarstadt CB300) and plasma was prepared for analysis. Compounds were detected by time-of-flight mass spectroscopy.
Another data set deals with HEK293T cells. It is filed as cell-based, human. To be noted: 2 μg/mL tunicamycin plus 200 nM ISRIB, 24 h. From the text: FIGS. 5A-5D. […]
The subject of data set [2] is rabbit reticulocyte in vitro translation system. The data set is described as follows: Rabbit reticulocyte in vitro translation assay (luciferase mRNA). The conditions noted are these: rabbit reticulocyte lysate. The format is biochemical. How it is done: FIG. 24. ISRIB enhances production of luciferase in a rabbit reticulocyte in vitro translation assay; luciferase mRNA was added to the lysates in the presence or absence of different concentrations of ISRIB; the amount of luciferase protein produced was quantitated by addition of One-Glo and the Relative luminescent units were normalized to no-addition control.

A short description of another data set: Toxicity in mice. It is filed as in vivo.
For the next data set, the system named is eIF2α (p-Ser51). The data set is described as follows: AlphaScreen SureFire eIF2α(p-Ser51) assay in U2OS cells. The format is cell-based, human. To be noted: U2OS. How it is done:
U2OS cells were plated on 96 well plates and left to recover overnight. Cells were treated with either with 2 μg/ml tunicamycin or 100 nM thapsigargin in the presence or absence of 100 nM ISRIB or with ISRIB alone for the indicated and the level of eIF2α phosphorylation was determined using the AlphaScreen SureFire eIF2α(p-Ser51) Assay kit (Perkin Elmer) following the manufacturer's recommendations. Plates were read in an Envision Xcite Multilabel Reader using the standard Alpha Screen settings.

The test system of the next data set is contextual fear memory. The data set is described as follows: Contextual fear conditioning. The conditions noted are these: vs vehicle. The format is in vivo, mouse. The procedure:
Eight to ten-week-old male C57BL/6J mice were used for behavioral experiments. Food and water were provided ad libitum, and mice were kept on a 12:12 h light/dark cycle (lights on at 08:00 h). All procedures complied with Canadian Council on Animal Care guidelines
Mice were handled for 3 days and thereafter injected daily intraperitoneally with ISRIB (0.25 mg/kg in saline, 1% DMSO) for 4 consecutive days. One hour after the last injection the mice were trained with the protocol, which consisted of a 2-min period of context exploration, followed by a single foot shock of 0.35 mA for 1 s. The mice were returned to their home cage 1 min after the shock. One and 24 h after training, the mice were tested for contextual fear memory by placing the animals in the conditioning context for a 4-min period. The incidence of freezing was scored in 5-s intervals as either “freezing” or “not freezing”. Percent of freezing indicates the number of intervals in which freezing was observed divided by total number of 5-s intervals. Statistical analyses were done by Student's t tests and one-way ANOVA followed by between-group comparisons using Tukey's posthoc test.

SMILES strings stand for the structures.

As to `O=C(COc1ccc(Cl)cc1)NC1CCC(NC(=O)COc2ccc(Cl)cc2)CC1` (stereo not drawn) [ISRIB], in data set [1], the AUC was 3318 ng·h/mL, the CLt is 8.318 mL/h, the F % stood at 13.8% and the T½ is recorded as 8.43 h. In addition, in data set [1], the Vd is 96.0261 mL. For the same compound, the “cell survival of ER-stressed cells (colony number and size)” value with HEK293T cells is “strong synergistic effect”. Also, the “translation of exogenously added mRNA” value in data set [2] is “enhances translation”. The toxicity entry in the data set “Toxicity in mice” is listed as “no overt toxicity”. Also, the “effect on eIF2α phosphorylation, compound alone” value with eIF2α (p-Ser51) (no ER stress, 120 min) is listed as “no effect on eIF2α phosphorylation”. Also, in the data set on eIF2α (p-Ser51) (tunicamycin or thapsigargin plus 100 nM ISRIB), the “effect on eIF2α phosphorylation upon ER stress” value is reported as “did not block eIF2α phosphorylation”. The “freezing, short-term contextual fear memory” value in the data set on contextual fear memory (1 h after training) was “No differences were observed”. Besides, in the data set with contextual fear memory (24 h after training, 0.25 mg/kg ip for 4 days, p<0.05), the “freezing, long-term contextual fear memory” value is on record as “increased freezing”.

The values are drawn from patent US9708247B2, “Modulators of the eIF2alpha pathway” (The Regents of the University of California, priority 2013, dated 2017).
